Data taken from ChEMBL document CHEMBL1201862, “PubChem BioAssay data set” (2004).
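1) Cells in 96-well plates. 2) Compound, 48 h, 5 concentrations. 3) Linear interpolation between surrounding doses. 4) Unreached endpoint = highest concentration. Abbreviation: GI50, concentration required for 50% inhibition of growth.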 The source made the active and inactive calls. No stated cut-off is given here; in the data, active = GI50 up to about 1.1 µM and inactive = higher.

Columns and labels:
Test in all cases: growth of human tumour cells (NCI), 48 h
DU-145 = system: DU-145
HCT-15 = system: HCT-15
HL-60 = system: HL-60
SR = system: SR
786-0 = system: 786-0
OVCAR-8 = system: OVCAR-8
UO-31 = system: UO-31
SF-268 = system: SF-268
HOP-92 = system: HOP-92
UACC-62 = system: UACC-62
ACHN = system: ACHN
HOP-62 = system: HOP-62
RXF 393 = system: RXF 393
NCI-H226 = system: NCI-H226
UACC-257 = system: UACC-257
K562 = system: K562
OVCAR-3 = system: OVCAR-3

| SMILES | GI50 (DU-145) | GI50 (HCT-15) [µM] | GI50 (HL-60) | GI50 (SR) | GI50 (786-0) | GI50 (OVCAR-8) | GI50 (UO-31) | GI50 (SF-268) | GI50 (HOP-92) | GI50 (UACC-62) | GI50 (ACHN) | GI50 (HOP-62) | GI50 (RXF 393) | GI50 (NCI-H226) | GI50 (UACC-257) | GI50 (K562) | GI50 (OVCAR-3) |
| --- | --- | --- | --- | --- | --- | --- | --- | --- | --- | --- | --- | --- | --- | --- | --- | --- | --- |
| COc1ccc(-c2nc(-c3cc4ccccc4oc3=O)cs2)cc1 | > 100 µM (inactive) | > 100 | > 100 µM (inactive) | > 100 µM (inactive) | 31.3 µM (inactive) | 23.2 µM (inactive) | 35.7 µM (inactive) | 61.2 µM (inactive) | 60.8 µM (inactive) | > 100 µM (inactive) | 34 µM (inactive) | 32 µM (inactive) | 85.3 µM (inactive) | > 100 µM (inactive) | > 100 µM (inactive) | > 100 µM (inactive) |  |
| CCOC(=O)c1csc(-c2nc(CCNC(=O)c3ccccc3)sc2Cl)n1 | > 100 µM (inactive) | 51.3 | 41.5 µM (inactive) | 37.1 µM (inactive) | > 100 µM (inactive) | 45 µM (inactive) | 61.2 µM (inactive) | 60 µM (inactive) | 5.74 µM (inactive) | 59.3 µM (inactive) | > 100 µM (inactive) | 55.7 µM (inactive) | > 100 µM (inactive) | > 100 µM (inactive) | > 100 µM (inactive) | 37.1 µM (inactive) | 45.8 µM (inactive) |
| OC1C[C@H](c2ccccc2)C2(C(O)c3ccccc3C2O)[C@@H](c2ccccc2)C1 (stereo not given in full) | > 100 µM (inactive) | > 100 | 27.9 µM (inactive) | 11.1 µM (inactive) | > 100 µM (inactive) | > 100 µM (inactive) | > 100 µM (inactive) | > 100 µM (inactive) | 57.4 µM (inactive) | > 100 µM (inactive) | > 100 µM (inactive) | > 100 µM (inactive) | > 100 µM (inactive) | > 100 µM (inactive) | 32.2 µM (inactive) | > 100 µM (inactive) | > 100 µM (inactive) |
| Nc1cc2c(c3ccccc13)C(CCl)CN2C(=O)c1cc2cc(NC(=O)c3cc4ccccc4o3)ccc2[nH]1 (stereo not given) | 0.000679 µM (active) | 0.00382 | 0.000264 µM (active) | 0.47 µM (active) | 0.00121 µM (active) | 0.000408 µM (active) | 0.00128 µM (active) | 0.00195 µM (active) | 0.0357 µM (active) | 0.00304 µM (active) | 0.000492 µM (active) | 0.000891 µM (active) | 0.11 µM (active) | 0.11 µM (active) | 0.00627 µM (active) |  | 0.00885 µM (active) |
| CSCCCCCCCCCCOc1ccc(C=C2C(=C(C#N)C#N)c3ccccc3C2=C(C#N)C#N)cc1 | 15.6 µM (inactive) | 23.1 | 0.0962 µM (active) | 15 µM (inactive) | 17.5 µM (inactive) | 17.5 µM (inactive) | 16.3 µM (inactive) | 17.9 µM (inactive) | 11.7 µM (inactive) |  | 13.1 µM (inactive) | 17.9 µM (inactive) | 17.3 µM (inactive) | 30.4 µM (inactive) | 18.9 µM (inactive) | 30.6 µM (inactive) | 16.4 µM (inactive) |
| CCN(CC)CCCNc1nncc2c(C)c3[nH]c4ccccc4c3cc12 | 0.706 µM (active) | 7.57 | 0.267 µM (active) | 0.247 µM (active) | 0.667 µM (active) | 0.685 µM (active) | 5.79 µM (inactive) |  | 0.847 µM (active) | 0.637 µM (active) | 0.914 µM (active) | 0.378 µM (active) | 1.63 µM (inactive) | 0.255 µM (active) | 1.24 µM (inactive) |  | 1.03 µM (active) |
| CCOC1Oc2ccccc2-c2nc(N)ncc21 (stereo not given) | 68.4 µM (inactive) | 14 | 20.8 µM (inactive) | 24.9 µM (inactive) | 58.7 µM (inactive) | 61.9 µM (inactive) | 43.5 µM (inactive) | 44.1 µM (inactive) | 69 µM (inactive) | 29.1 µM (inactive) | 59.4 µM (inactive) |  | 37.7 µM (inactive) | 61.9 µM (inactive) | 55.2 µM (inactive) |  | 57 µM (inactive) |
| CCOC(=O)C1=C(c2ccccc2)C12N(Cc1ccccc1)C(=O)C2(c1ccccc1)c1ccccc1 (stereo not given) | 75 µM (inactive) | 30.8 | 34.9 µM (inactive) | 45.3 µM (inactive) |  |  | 28.8 µM (inactive) | > 100 µM (inactive) | 20 µM (inactive) | 39.5 µM (inactive) | 37.7 µM (inactive) | 67 µM (inactive) | 28.3 µM (inactive) | 26.3 µM (inactive) | 34.7 µM (inactive) | 16.5 µM (inactive) | 33.8 µM (inactive) |
| COc1cc(CCN(C)C)cc(OC)c1OC | > 100 µM (inactive) | > 100 | > 100 µM (inactive) | > 100 µM (inactive) |  | > 100 µM (inactive) |  | > 100 µM (inactive) | > 100 µM (inactive) | > 100 µM (inactive) | > 100 µM (inactive) | > 100 µM (inactive) | > 100 µM (inactive) | > 100 µM (inactive) | > 100 µM (inactive) | > 100 µM (inactive) | > 100 µM (inactive) |
| Oc1ccc(O)c(CNc2ccccc2)c1 | 12.3 µM (inactive) | 10.3 | 2.67 µM (inactive) | 2.29 µM (inactive) | 10.3 µM (inactive) | 8.02 µM (inactive) | 10.7 µM (inactive) | 11.6 µM (inactive) | 5.07 µM (inactive) | 13.3 µM (inactive) | 10.5 µM (inactive) |  | 5.64 µM (inactive) | 26.7 µM (inactive) | 16.9 µM (inactive) | 1.65 µM (inactive) | 4.62 µM (inactive) |
| O=C(O)CCC1(c2ccccc2)NC(=O)NC1=O (stereo not given) | > 100 µM (inactive) | > 100 | > 100 µM (inactive) | > 100 µM (inactive) | > 100 µM (inactive) | > 100 µM (inactive) |  | > 100 µM (inactive) | > 100 µM (inactive) | > 100 µM (inactive) | > 100 µM (inactive) | > 100 µM (inactive) | > 100 µM (inactive) | > 100 µM (inactive) | > 100 µM (inactive) | > 100 µM (inactive) | > 100 µM (inactive) |
| CC1=CC(=O)N(n2c(C)n[nH]c2=O)C1=O | > 100 µM (inactive) | > 100 |  | > 100 µM (inactive) | > 100 µM (inactive) | > 100 µM (inactive) | > 100 µM (inactive) | > 100 µM (inactive) | > 100 µM (inactive) | > 100 µM (inactive) | > 100 µM (inactive) |  | > 100 µM (inactive) | > 100 µM (inactive) | > 100 µM (inactive) | > 100 µM (inactive) | > 100 µM (inactive) |
| O=C1N(CN2CCOCC2)CN(CN2CCOCC2)C(=O)N1Cc1ccccc1 | 24.9 µM (inactive) | 27.6 |  | 18.8 µM (inactive) | 26.6 µM (inactive) | 19.2 µM (inactive) | 28.1 µM (inactive) | 22 µM (inactive) | 25.8 µM (inactive) | 22.2 µM (inactive) | 32.5 µM (inactive) | 35.4 µM (inactive) | 17.7 µM (inactive) | 37.1 µM (inactive) | 21.7 µM (inactive) | 24 µM (inactive) | 23.9 µM (inactive) |
